Measurements from ChEMBL document CHEMBL1144604, “Synthesis and biological evaluation of phosphonate derivatives as autotaxin (ATX) inhibitors” (Bioorg Med Chem Lett, 2007).

Columns and labels:
Autotaxin (Homo sapiens) [1] = molecular target: Autotaxin (Homo sapiens) (UniProt Q13822); assay: Inhibition of human recombinant ATX at 10 uM after 16 hrs; values are per cent of control
Autotaxin (Homo sapiens) [2] = molecular target: Autotaxin (Homo sapiens) (UniProt Q13822); assay: Inhibition of human recombinant ATX at 100 uM after 16 hrs; values are per cent of control
Autotaxin (Homo sapiens) [3] = molecular target: Autotaxin (Homo sapiens) (UniProt Q13822); assay: Inhibition of human recombinant ATX at 1 uM after 16 hrs; values are per cent of control

residual activity (Autotaxin (Homo sapiens) [1]) [%] | residual activity (Autotaxin (Homo sapiens) [2]) [%] | residual activity (Autotaxin (Homo sapiens) [3]) [%] | SMILES
86 | 30 | – | CCCCCCCCCC(=O)N[C@H](Cc1ccc(OCc2ncc(C)c(OC)c2C)cc1)C(O)CP(=O)(O)O (some centres undefined)
68 | 45 | 96 | CCCCCCCCCCCCCCCC(=O)N[C@@H](Cc1ccc(OC)cc1)C(=O)CP(=O)(O)O
104 | 85 | 104 | CCCCCCCCCCCCCCCC(=O)N[C@@H](Cc1ccc(OCCC(C)C)cc1)C(=O)CP(=O)(O)O
97 | 72 | – | CCCCCCCCCCCCCCCC(=O)N[C@@H](Cc1ccc(OCCC)cc1)C(=O)CP(=O)(O)O
83 | – | 95 | CCCCCCCCCCCCCCCC(=O)N[C@@H](Cc1ccc(OCCCCC)cc1)C(=O)CP(=O)(O)O
71 | 61 | – | CCCCCCCCCCCCCCCC(=O)N[C@@H](Cc1ccc(OCc2ccccc2)cc1)C(=O)CP(=O)(O)O
72 | 50 | 102 | CCCCCCCCCCCCCCCC(=O)N[C@@H](Cc1ccc(OCc2ccccn2)cc1)C(=O)CP(=O)(O)O
71 | 32 | 84 | CCCCCCCCCCCCCCCC(=O)N[C@H](Cc1ccc(OC)cc1)C(=O)CP(=O)(O)O
101 | 76 | 97 | CCCCCCCCCCCCCCCC(=O)N[C@H](Cc1ccc(OCCC(C)C)cc1)C(=O)CP(=O)(O)O
97 | 75 | 104 | CCCCCCCCCCCCCCCC(=O)N[C@H](Cc1ccc(OCCC)cc1)C(=O)CP(=O)(O)O
84 | – | 93 | CCCCCCCCCCCCCCCC(=O)N[C@H](Cc1ccc(OCCCCC)cc1)C(=O)CP(=O)(O)O
82 | 76 | – | CCCCCCCCCCCCCCCC(=O)N[C@H](Cc1ccc(OCc2ccccc2)cc1)C(=O)CP(=O)(O)O
68 | 52 | 78 | CCCCCCCCCCCCCCCC(=O)N[C@H](Cc1ccc(OCc2ccccn2)cc1)C(=O)CP(=O)(O)O
74 | 26 | 71 | CCCCCCCCCCCCCCCC(=O)N[C@H](Cc1ccc(OCc2ncc(C)c(OC)c2C)cc1)C(=O)CP(=O)(O)O
45 | 15 | – | CCCCCCCC/C=C/CCCCCCCC(=O)N[C@@H](Cc1ccc(OCc2ncc(C)c(OC)c2C)cc1)C(O)CP(=O)(O)O (single isomer, unassigned; diastereomer a)
99 | 67 | – | CCCCCCCCCCCCCC(=O)N[C@H](Cc1ccc(OCc2ncc(C)c(OC)c2C)cc1)C(O)CP(=O)(O)O (single isomer, unassigned; diastereomer a)
74 | 65 | – | CCCCCCCCCCCCCCCC(=O)N[C@@H](Cc1ccc(OCc2ccccn2)cc1)C(O)CP(=O)(O)O (single isomer, unassigned; diastereomer b)
104 | 94 | – | CCCCCCCCCCCCCCCC(=O)N[C@H](Cc1ccc(OCCC(C)C)cc1)C(O)CP(=O)(O)O (single isomer, unassigned; diastereomer b)
84 | 64 | – | CCCCCCCCCCCCCCCC(=O)N[C@H](Cc1ccc(OCc2cc(OCC(F)(F)F)ccn2)cc1)C(O)CP(=O)(O)O (single isomer, unassigned; diastereomer b)
90 | 62 | – | CCCCCCCCCCCCCCCCCC(=O)N[C@@H](Cc1ccc(OCc2ncc(C)c(OC)c2C)cc1)C(O)CP(=O)(O)O (single isomer, unassigned; diastereomer b)
– | 35 | – | CCCCCCCCCCCCCC(=O)N[C@H](Cc1ccc(OCc2ncc(C)c(OC)c2C)cc1)C(O)CP(=O)(O)O (stereo in doubt; f38)
